Experimental data taken from patent US12064443B2 (priority 2021, dated 2024).

Experiments:
[1] = cited from earlier work
[2] = test system: Cholera toxin (CTx) challenge; conditions: mouse, in vivo

| Molecule | Solubility in water [1] | Effect on volume of intestinal secretion upon CTx challenge [2] |
| --- | --- | --- |
| O=S(=O)([O-])OC[C@H]1O[C@@](COS(=O)(=O)[O-])(O[C@H]2O[C@H](COS(=O)(=O)[O-])[C@@H](OS(=O)(=O)[O-])[C@H](OS(=O)(=O)[O-])[C@H]2OS(=O)(=O)[O-])[C@@H](OS(=O)(=O)[O-])[C@@H]1OS(=O)(=O)[O-].[K+].[K+].[K+].[K+].[K+].[K+].[K+].[K+] [Sucrose octasulfate-potassium salt] | freely soluble |  |
| Sucralfate | poorly soluble | neither polyphenol nor sucralfate reduced the volume of intestinal secretion |
